What all share (type): physicochemical
Data set [1] in a line: Amorphous pemetrexed disodium stability study (HPLC purity, moisture content, XRD on storage). As to conditions: for HPLC: in % (unit assumed). Set-up: key to HPLC: % chromatographic purity by HPLC area normalisation. The procedure: (§1) X-ray diffraction data were acquired using a PANalyticalX′pert PRO X-ray diffractometer model.
(§2) System description: Kα1=1.54060 A^0, voltage 45 kV, current 40 mA, Xray source: Cu.
(§3) Experiment parameters: pattern measured between 2θ=4° and 2θ=40° with 0.05° increments; count time was 0.5 second per increment.
(§4) The water content measurements were carried out using a METTLER TOLEDO Model: DL31Karl Fischer Titrator according to standard procedures.
(§5) Purity by HPLC was performed by Waters 2690 Seperations module.system.
The samples were packed in double seal poly bags followed by Aluminium bag sealed under nitrogen with oxygen trapper and stored • at 2-8° C. for a period of six months • 25° C./60% relative humidity (RH) for a period of six months.
The purity of the sample was checked by HPLC and XRD was recorded for the samples stored under these conditions after 2 months and 6 months.
Inject 20 μl of test solution and calculate the chromatographic purity by area normalisation method.

A short description of data set [2]: Bulk and tapped density (tap density tester, USP). The text has this:
As referred to herein the term “bulk density” is the weight of the sample divided by its non packed volume and the term “tapped density” is the weight of the sample divided by its packed volume. The units of bulk density are grams (gm) per cubic centimeter (cc) or grams (gm) per milliliter (ml). A powder having low bulk density will be lightweight, fluffy and have greater surface area. A powder with high density will be much more compact and dense, exist as harder particles and will result in a more flowable product compared to powder with low bulk density. Bulk and tapped densities were measured using Electrolab ETD-1020 tap density tester (USP).

The nature of data set [3]: Material kept outside at room temperature for 15 hrs (XRD, water content, HPLC purity). The note with it: after room temperature. The protocol:
as §1, §4, §5
The material was kept outside at room temperature for 15 hrs.

Data set [4] is described as follows: Conservation of amorphous form under various storage conditions (XRD, moisture content). The procedure: as §1, §2, §3, §4
Where [5] appears, read: 2-8° C. or 25° C./60% relative humidity, six months.
The mark [6] stands for this setting: 40° C./75% relative humidity for 7 days, double polythene bags in a fiber drum.
The mark [7] stands for this setting: 80° C. for 7 days, open petriplate.
Where [8] appears, read: Room temperature for 24 hours, open petriplate.
[9] abbreviates: Room temperature for 40 days, double polythene bags.

Consider `Nc1nc2[nH]cc(CCc3ccc(C(=O)NC(CCC(=O)[O-])C(=O)[O-])cc3)c2c(=O)[nH]1.[Na+].[Na+]` (stereo not shown) [Amorphous Form of Pemetrexed Disodium, with Moisture Content] [listing 1 of 2 here], for which the “% Moisture Content” value in data set [1] (2-8° C., 2 Months) was 8.96%; in data set [1] (2-8° C., 6 Months), 9.39%; in data set [1] (2-8° C., Initial), 9.04%; in data set [1] (25° C. RH 60%, 2 Months) it was 8.39%; in data set [1] (25° C. RH 60%, 6 Months), 8.85%; in data set [1] (25° C. RH 60%, Initial) it was 9.04%. For the same compound, the HPLC is recorded as 99.72 in data set [1] (2-8° C., 2 Months); 99.62 in data set [1] (2-8° C., 6 Months); 99.68 in data set [1] (2-8° C., Initial); 99.72 in data set [1] (25° C. RH 60%, 2 Months); 99.67 in data set [1] (25° C. RH 60%, 6 Months); 99.68 in data set [1] (25° C. RH 60%, Initial). Besides, the XRD result was “Amorphous” in data set [1] (2-8° C., 6 Months); “Amorphous” in data set [1] (2-8° C., Initial); “Amorphous” in data set [1] (25° C. RH 60%, 6 Months); “Amorphous” in data set [1] (25° C. RH 60%, Initial).

As to `Nc1nc2[nH]cc(CCc3ccc(C(=O)NC(CCC(=O)[O-])C(=O)[O-])cc3)c2c(=O)[nH]1.[Na+].[Na+]` (stereo not shown) [Amorphous Form of Pemetrexed Disodium, with Moisture Content] [listing 2 of 2 here], the “% Moisture Content” value in data set [1] (2-8° C., 2 Months) is 11.68%; in data set [1] (2-8° C., 6 Months) it was 12.31%; in data set [1] (2-8° C., Initial), 15.92%; in data set [1] (25° C. RH 60%, 2 Months), 10.26%; in data set [1] (25° C. RH 60%, 6 Months), 11.45%; in data set [1] (25° C. RH 60%, Initial), 15.92%. In addition, the XRD result in data set [1] (2-8° C., 6 Months) was “Amorphous”. The HPLC in data set [1] (2-8° C., 6 Months) stood at 99.59; in data set [1] (2-8° C., Initial), 99.66; in data set [1] (25° C. RH 60%, 6 Months) it was 99.63; in data set [1] (25° C. RH 60%, Initial), 99.66.

In the case of `Nc1nc2[nH]cc(CCc3ccc(C(=O)NC(CCC(=O)[O-])C(=O)[O-])cc3)c2c(=O)[nH]1.[Na+].[Na+]` (stereo not shown) [Example 2, amorphous pemetrexed disodium], in data set [2], the Bulk density was found to be 0.226 gm/ml and the Tapped density is recorded as 0.369 gm/ml.

`Nc1nc2[nH]cc(CCc3ccc(C(=O)NC(CCC(=O)[O-])C(=O)[O-])cc3)c2c(=O)[nH]1.[Na+].[Na+]` (stereo not shown) [Example 3, amorphous pemetrexed disodium]: in data set [3], the HPLC purity is 99.66%, the Water content is reported as 16% and the “X-ray diffraction (form)” value was “amorphous form is retained”.

On to `Nc1nc2[nH]cc(CCc3ccc(C(=O)NC(CCC(=O)[O-])C(=O)[O-])cc3)c2c(=O)[nH]1.[Na+].[Na+]` (stereo not shown) [amorphous form of pemetrexed disodium, pemetrexed disodium], for which the “amorphous form after storage (XRD)” value in data set [1] (setting [5]) is “amorphous form is retained”. The “impurity formation / chemical purity after storage (HPLC)” value in data set [1] (setting [5]) is listed as “no significant formation of impurities”. The “% Moisture Content after storage” value in data set [4] (setting [6]) stood at 18.27%; in data set [4] (setting [7]) it was 6.24%; in data set [4] (setting [8]), 20.03%; in data set [4] (setting [9]), 18.56. Further, the XRD entry in data set [4] (setting [6]), in data set [4] (setting [7]), in data set [4] (setting [8]) and in data set [4] (setting [9]) was “Amorphous form” in each case. The “% Moisture Content Initial” value in data set [4] (before storage) came to 5.48%.

For the origin of these results see patent publication US20090181990A1 (priority 2007, published 2009).
